Read-outs that look alike come from different tables or passages of the source.
Key:
[1] = biological target: IDH1-R132H recombinant protein (Homo sapiens (Human), UniProt O75874, R132H); experiment: IDH1-R132H enzymatic assay (inhibition of NADPH consumption, diaphorase/resazurin readout); format: biochemical; settings: read-out: Enzyme IDH1 R132H IC50 (Range)
Method in brief: (§1)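 Compound was preincubated 15 min at 25 °C with 30 nM IDH1-R132H or 10 nM IDH1-R132C in Tris pH 7.5 buffer with MgCl2, BSA and Triton X-100. Reaction with 2 mM α-ketoglutarate and 20 μM NADPH (solution concentrations) ran 45 min at 25 °C. Remaining NADPH was detected via diaphorase/resazurin fluorescence (ex 535/em 590 nm), and IC50 came from four-parameter fits.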

[2] = test system: HCT116 isogenic IDH1-R132C mutant cells; experiment: Cellular 2-HG assay using HCT116 mutant IDH1 cells (R132C), RapidFire mass spectrometry; format: cell-based; settings: Homo sapiens, read-out: HCT116 IDH1 R132C IC50 (Range)
Description: (§2) Example 106—Cellular 2-HG assay using HCT116 mutant IDH1 cells
(§3) HCT116 isogenic IDH1-R132H and IDH1-R132C mutant cells were cultured in growth media (McCoy's 5 A, 10% fetal bovine serum, 1× antibiotic-antimycotic solution and 0.3 mg/mL G418) in 5% CO2 in an incubator at 37° C. To prepare the assay, cells were trypsinized and resuspended in assay media (McCoy's 5 A with no L-glutamine, 10% fetal bovine serum, 1× antibiotic-antimycotic solution and 0.3 mg/mL G418). An aliquot of 10,000 cells/100 μL was transferred to each well of a clear 96-well tissue culture plate. The cells were incubated in 5% CO2 at 37° C. in an incubator overnight to allow for proper cell attachment. An aliquot of 50 μL of compound containing assay media were then added to each well and the assay plate was kept in 5% CO2 at 37° C. in an incubator for 24 hours. The media was then removed from each well and 150 μL of a methanol/water mixture (80/20 v/v) was added to each well. The plates were kept at −80° C. freezer overnight to allow for complete cell lysis. An aliquot of 125 μL of extracted supernatant was analyzed by RapidFire high-throughout-mass spectrometry (Agilent) to determine the cellular 2-HG level. The IC50 of a given compound was calculated by fitting the dose response curve of cellular 2-HG inhibition at a given concentration with the four parameter logistic equation.

[3] = test system: HCT116 isogenic IDH1-R132H mutant cells; experiment: Cellular 2-HG assay using HCT116 mutant IDH1 cells (R132H), RapidFire mass spectrometry; format: cell-based; settings: Homo sapiens, read-out: HCT116 IDH1 R132H IC50 (Range)
Description: as §2, §3

[4] = biological target: IDH1-R132C recombinant protein (Homo sapiens (Human), UniProt O75874, R132C); experiment: IDH1-R132C enzymatic assay (inhibition of NADPH consumption, diaphorase/resazurin readout); format: biochemical; settings: read-out: Enzyme IDH1 R132C IC50 (Range)
Chain of IDH1-R132C recombinant protein (O75874 whole entry R132C): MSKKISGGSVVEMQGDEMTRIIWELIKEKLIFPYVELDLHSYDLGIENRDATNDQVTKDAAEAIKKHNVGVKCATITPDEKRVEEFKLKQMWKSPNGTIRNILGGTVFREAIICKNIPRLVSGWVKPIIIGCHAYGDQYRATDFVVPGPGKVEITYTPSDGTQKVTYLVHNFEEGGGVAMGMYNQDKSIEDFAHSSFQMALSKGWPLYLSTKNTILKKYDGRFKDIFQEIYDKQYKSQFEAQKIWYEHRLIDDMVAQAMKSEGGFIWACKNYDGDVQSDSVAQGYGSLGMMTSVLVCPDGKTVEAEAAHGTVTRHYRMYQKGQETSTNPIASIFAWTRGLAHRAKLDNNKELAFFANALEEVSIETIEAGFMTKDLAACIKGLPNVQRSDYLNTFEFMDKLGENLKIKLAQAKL
Method in brief: as §1

[5] = HCT-116, cellular 2-HG level, HCT116 IDH1-R132C cells, 24 hours
[6] = HCT-116, cellular 2-HG level, HCT116 IDH1-R132H cells, 24 hours

Chain of IDH1-R132H recombinant protein (O75874 whole entry R132H): as the sequence (O75874 whole entry R132C) above, with C132H counted along it

Row | IC50 [1] [nM] | IC50 [2, 5] [nM] | IC50 [3, 6] [nM] | IC50 [4] [nM] | SMILES | IC50 ([2]; HCT-116, 24 h) [nM] | IC50 ([3]; HCT-116, 24 h) [nM]
1 | < 100 | 100 to 1000 | < 100 | < 100 | COc1nc(N[C@@H](C)c2cc3cc(Cl)c(O[C@H](C)c4ccccn4)cc3[nH]c2=O)ncc1C#N [Compound I-158, 2-(((S)-1-(6-chloro-2-oxo-7-((R)-1-(pyridin-2-yl)ethoxy)-1,2-dihydroquinolin-3-yl)ethyl)amino)-4-methoxypyrimidine-5-carbonitrile] |  | 
2 | < 100 | < 100 | < 100 | < 100 | COc1nc(N[C@@H](C)c2cc3cc(Cl)c(OCC4CC4)cc3[nH]c2=O)ncc1C#N [Compound I-159, (S)-2-((1-(6-chloro-7-(Cyclopropylmethoxy)-2-oxo-1,2-dihydroquinolin-3-yl)ethyl)amino)-4-methoxypyrimidine-5-carbonitrile] |  | 
3 | < 100 | < 100 | < 100 | < 100 | CC(=O)Nc1ccnc(N[C@@H](C)c2cc3cc(Cl)cc(F)c3[nH]c2=O)n1 [Compound I-160, (S)—N-(2-((1-(6-Chloro-8-fluoro-2-oxo-1,2-dihydroquinolin-3-yl)ethyl)amino)pyrimidin-4-yl)acetamide] |  | 
4 | < 100 | 100 to 1000 | < 100 | 100 to 1000 | COc1nc(N[C@@H](C)c2cc3cc(Cl)cc(F)c3[nH]c2=O)ncc1C#N [Compound I-161, (S)-2-((1-(6-Chloro-8-fluoro-2-oxo-1,2-dihydroquinolin-3-yl)ethyl)amino)-4-methoxy pyrimidine-5-carbonitrile] |  | 
5 | < 100 | 100 to 1000 | < 100 | 100 to 1000 | COc1nc(N[C@@H](C)c2cc3cc(Cl)c(Br)cc3[nH]c2=O)ncc1C#N [Compound I-162, (S)-2-((1-(7-bromo-6-chloro-2-oxo-1,2-dihydroquinolin-3-yl)ethyl)amino)-4-methoxypyrimidine-5-carbonitrile] |  | 
6 | < 100 | < 100 | < 100 | < 100 | CC(=O)Nc1ccnc(N[C@@H](C)c2cc3cc(Cl)c(F)cc3[nH]c2=O)n1 [Compound I-179, (S)—N-(2-((1-(6-chloro-7-fluoro-2-oxo-1,2-dihydroquinolin-3-yl)ethyl)amino)pyrimidin-4-yl)acetamide] |  | 
7 | 100 to 1000 | 100 to 1000 | 100 to 1000 | 100 to 1000 | C[C@H](Nc1nccc(NC(=O)C2CC2)n1)c1cc2cc(Cl)c(F)cc2[nH]c1=O [Compound I-180, (S)—N-(2-((1-(6-chloro-7-fluoro-2-oxo-1,2-dihydroquinolin-3-yl)ethyl)amino)pyrimidin-4-yl)cyclopropanecarboxamide] |  | 
8 | < 100 | 100 to 1000 | 100 to 1000 | 100 to 1000 | CC(=O)Nc1ccnc(N[C@@H](C)c2cc3cc(Cl)cnc3[nH]c2=O)n1 [Compound I-182] |  | 
9 | 100 to 1000 | 100 to 1000 | 100 to 1000 | 100 to 1000 | C[C@H](Nc1nccc(-n2nnnc2C2CC2)n1)c1cc2cc(Cl)cnc2[nH]c1=O [Compound I-184] |  | 

More lines, now with the values behind:

Row | SMILES | IC50 [1] [nM] | IC50 [2, 5] [nM] | IC50 [3, 6] [nM] | IC50 [4] [nM] | IC50 ([2]; HCT-116, 24 h) [nM] | IC50 ([3]; HCT-116, 24 h) [nM]
10 | C[C@H](Nc1nccc(-c2ccccc2)n1)c1cc2cc(Cl)ccc2[nH]c1=O [Compound I-101] | < 100 | 100 to 1000 | 100 to 1000 | 100 to 1000 |  | 
11 | C[C@H](Nc1nccc([S@@+](C)[O-])n1)c1cc2cc(Cl)ccc2[nH]c1=O [Compound I-112] | 100 to 1000 | 1000 to 10000 | 100 to 1000 | 1000 to 10000 |  | 
12 | C[C@H](Nc1nccc([S@+](C)[O-])n1)c1cc2cc(Cl)ccc2[nH]c1=O [Compound I-113] | < 100 | 100 to 1000 | < 100 | 100 to 1000 |  | 
13 | C[C@H](Nc1nccc(C(N)=O)n1)c1cc2cc(Cl)ccc2[nH]c1=O [Compound I-114, (S)-2-((1-(6-chloro-2-oxo-1,2-dihydroquinolin-3-yl)ethyl)amino)pyrimidine-4-carboxamide] | < 100 | 100 to 1000 | 100 to 1000 | 100 to 1000 |  | 
14 | CNC(=O)c1ccnc(N[C@@H](C)c2cc3cc(Cl)ccc3[nH]c2=O)n1 [Compound I-115] | 100 to 1000 | 100 to 1000 | 100 to 1000 | 100 to 1000 |  | 
15 | CC(C)CNC(=O)c1ccnc(N[C@@H](C)c2cc3cc(Cl)ccc3[nH]c2=O)n1 [Compound I-116] | 100 to 1000 | 1000 to 10000 | 100 to 1000 | 100 to 1000 |  | 
16 | C[C@H](Nc1nccc(N2CCNC2=O)n1)c1cc2cc(Cl)ccc2[nH]c1=O [Compound I-123, (S)-6-Chloro-3-(1-((4-(2-oxoimidazolidin-1-yl)pyrimidin-2-yl)amino)ethyl)quinolin-2(1H)-one] | < 100 | 100 to 1000 | 100 to 1000 | 100 to 1000 |  | 
17 | COC(=O)c1ccnc(N[C@@H](C)c2cc3cc(Cl)ccc3[nH]c2=O)n1 [Compound I-129] | 100 to 1000 | 1000 to 10000 | 1000 to 10000 | 1000 to 10000 |  | 
18 | COc1nc(NC(C)c2cc3cc(Cl)c(F)cc3[nH]c2=O)ncc1C#N (stereo not shown) [Compound I-142] | < 100 |  |  | 100 to 1000 | 100 to 1000 | < 100
19 | COc1cc2[nH]c(=O)c([C@H](C)Nc3ncc(C#N)c(OC)n3)cc2cc1Cl [Compound I-143, (S)-2-((1-(6-Chloro-7-methoxy-2-oxo-1,2-dihydroquinolin-3-yl)ethyl)amino)-4-methoxypyrimidine-5-carbonitrile] | < 100 |  |  | < 100 | < 100 | < 100
20 | COc1cc2[nH]c(=O)c(C(C)Nc3ncc(C#N)c(OC)n3)cc2cc1Cl (stereo not shown) [Compound I-145] | < 100 |  |  | < 100 | 100 to 1000 | < 100
21 | COc1cc2[nH]c(=O)c(C(C)Nc3nccc(N4CCOC4=O)n3)cc2cc1Cl (stereo not shown) [Compound I-146] | < 100 | 100 to 1000 | < 100 | 100 to 1000 |  | 
22 | CC(=O)Nc1ccnc(NC(C)c2cc3cc(Cl)c(OCc4ccccn4)cc3[nH]c2=O)n1 (stereo not shown) [Compound I-149] | < 100 | < 100 | < 100 | < 100 |  | 
23 | COc1nc(N[C@@H](C)c2cc3cc(Cl)c(OCc4ccccn4)cc3[nH]c2=O)ncc1C#N [Compound I-151, (S)-2-((1-(6-Chloro-2-oxo-7-(pyridin-2-ylmethoxy)-1,2-dihydroquinolin-3-yl)ethyl)amino)-4-methoxypyrimidine-5-carbonitrile] | < 100 | < 100 | < 100 | < 100 |  | 
24 | C[C@H](Nc1ncc(C#N)c(O)n1)c1cc2cc(Cl)c(OCc3ccccn3)cc2[nH]c1=O [Compound I-152, (S)-2-((1-(6-chloro-2-oxo-7-(pyridin-2-ylmethoxy)-1,2-dihydroquinolin-3-yl)ethyl)amino)-4-hydroxypyrimidine-5-carbonitrile] | < 100 | 1000 to 10000 | 100 to 1000 | 1000 to 10000 |  | 
25 | COC(=O)Nc1ccnc(N[C@@H](C)c2cc3cc(Cl)c(OCc4ccccn4)cc3[nH]c2=O)n1 [Compound I-154, (S)-methyl (2-((1-(6-Chloro-2-oxo-7-(pyridin-2-ylmethoxy)-1,2-dihydroquinolin-3-yl)ethyl)amino)pyrimidin-4-yl)carbamate] | < 100 | < 100 | < 100 | < 100 |  | 
26 | COc1nc(N[C@@H](C)c2cc3cc(Cl)cnc3[nH]c2=O)ncc1C#N [Compound I-155, (S)-2-((1-(6-chloro-2-oxo-1,2-dihydro-1,8-naphthyridin-3-yl)ethyl)amino)-4-methoxy pyrimidine-5-carbonitrile] | < 100 | 1000 to 10000 | 100 to 1000 | 1000 to 10000 |  | 
27 | COc1nc(N[C@H](C)c2nc3cc(Cl)ccc3[nH]c2=O)ncc1C#N [Compound I-157] | 100 to 1000 |  |  | 1000 to 10000 | 100 to 1000 | < 100
28 | COc1nc(N[C@@H](C)c2cc3cc(Cl)c(F)cc3[nH]c2=O)ncc1C#N [Compound I-181] | < 100 |  |  | 100 to 1000 | 100 to 1000 | 100 to 1000

Source: patent US10280150B2 (FORMA TM2, Inc., priority 2014, dated 2019)
